15 compounds from PubChem BioAssay (NCI) can be followed below.

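Following 48 hours of exposure in 96-well plates, responses at five concentrations were used to interpolate endpoints linearly. GI50 is the concentration that inhibits growth by half. TGI: concentration producing complete growth inhibition.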

Some test systems named below: A498 renal; HT29 colon; NCI-H522 lung; OVCAR-8 ovarian; SN12C renal; TK-10 renal; UACC-62 melanoma; BT-549 breast.
Common to all, as to assay: growth of human tumour cells (NCI), 48 h

With `CC1=CC(=O)C(C(O)(C(F)(F)F)C(F)(F)F)C(C)(C)C1` (stereo unspecified), the TGI with A498 renal, with HT29 colon, in the experiment on NCI-H522 lung, in the experiment on OVCAR-8 ovarian, with SN12C renal and in the experiment with TK-10 renal was greater than 10 µM each time. Moreover, the TGI in the experiment on UACC-62 melanoma was greater than 10 µM.

Regarding `C=C(C)[C@@]1(O[Si](C)(C)C)CCCC[C@@H]1CC(Sc1ccccc1)Sc1ccccc1`, the TGI with A498 renal stood at 34.5 µM; in the experiment on HT29 colon, 34.8 µM; in the experiment with NCI-H522 lung it was 20.4 µM; in the experiment with OVCAR-8 ovarian, 31.7 µM; with TK-10 renal, 29 µM; in the experiment with UACC-62 melanoma it was 26.9 µM.

With `CCOC(=O)[C@@H]1ON2O[C@@H](OC3CCCC3(c3ccccc3)c3ccccc3)C[C@H]3OC(=O)[C@@H]1C32` (stereo partly specified), the TGI was greater than 100 µM with A498 renal; 43.1 µM in the experiment on HT29 colon; 91.9 µM in the experiment with NCI-H522 lung; greater than 100 µM with OVCAR-8 ovarian; 80.3 µM in the experiment with SN12C renal; 43.6 µM with TK-10 renal. Moreover, in the experiment with UACC-62 melanoma, the TGI is 42.2 µM.

In the case of `O=C1CCCc2cc3c(cc21)CC1(C3)Cc2ccc3c(c2C1)C(=O)CCC3` (stereo unspecified), the TGI in the experiment with A498 renal, in the experiment with HT29 colon, in the experiment on NCI-H522 lung, in the experiment on OVCAR-8 ovarian, in the experiment on SN12C renal and in the experiment on TK-10 renal was greater than 100 µM in each case.

Consider `O=C(CCCN1CCC2(CC1)C(=NC1CCCCC1)NC(=O)N2c1ccccc1)c1ccc(F)cc1`, for which the TGI in the experiment on A498 renal came out at 34.1 µM; with HT29 colon, 37 µM; in the experiment on NCI-H522 lung, 51.3 µM; with OVCAR-8 ovarian, 68.4 µM; with SN12C renal, 40.7 µM; in the experiment on TK-10 renal it was 63.2 µM. The TGI in the experiment on UACC-62 melanoma is 46.5 µM.

`CC1(C)[C@@H](Cn2cnc3c(Cl)nc(N)nc32)CC[C@@]1(C)CO`: the TGI with A498 renal is greater than 100 µM; in the experiment on SN12C renal, greater than 100 µM; in the experiment on TK-10 renal, greater than 100 µM; in the experiment on UACC-62 melanoma it was 38 µM.

`O=C(Nc1ccc(-n2cc(-c3ccncc3)c(-c3ccc(O)c(Cl)c3)n2)cc1)Nc1cccc(Cl)c1Cl`: the GI50 is 13.8 µM in the experiment with A498 renal; 3.87 µM in the experiment on HT29 colon; 4.03 µM in the experiment on NCI-H522 lung; 6.86 µM with OVCAR-8 ovarian; 19.9 µM in the experiment on SN12C renal; 6.52 µM in the experiment with TK-10 renal. Further, the GI50 in the experiment with UACC-62 melanoma was 9.79 µM. The TGI in the experiment with A498 renal was greater than 32.5 µM; with HT29 colon it was 10.4 µM; in the experiment with NCI-H522 lung it was greater than 32.5 µM; with OVCAR-8 ovarian, greater than 32.5 µM; in the experiment with SN12C renal it was greater than 32.5 µM; in the experiment with TK-10 renal, 22.1 µM. In the experiment with UACC-62 melanoma, this compound yielded a TGI greater than 32.5 µM.

On to `CC(O)CC(O)(C(F)(F)F)C(F)(F)F` (stereo unspecified), for which the TGI in the experiment with A498 renal, in the experiment on HT29 colon, with NCI-H522 lung, in the experiment with OVCAR-8 ovarian, with SN12C renal and with TK-10 renal was greater than 10 µM throughout. Besides, the TGI with UACC-62 melanoma is greater than 10 µM.

In the case of `COc1cc(C=C2C(=O)NC(=S)NC2=O)cc(OC)c1OC`, the TGI in the experiment with BT-549 breast, in the experiment on HT29 colon, in the experiment on OVCAR-8 ovarian, in the experiment with SN12C renal, in the experiment on TK-10 renal and in the experiment with UACC-62 melanoma was greater than 100 µM throughout.

Regarding `COc1ccccc1N1CCN(CCCNC(=O)c2cc(Cl)c(N)c(Cl)c2)CC1`, the TGI in the experiment on A498 renal, in the experiment on HT29 colon, in the experiment on OVCAR-8 ovarian, with SN12C renal, in the experiment on TK-10 renal and in the experiment on UACC-62 melanoma was greater than 100 µM throughout.

With `O=C(c1ccccc1)N1C(=S)N=C(Nc2ccccc2)C1=Nc1ccccc1`, the TGI with A498 renal, in the experiment on HT29 colon, in the experiment with NCI-H522 lung, in the experiment on OVCAR-8 ovarian, with SN12C renal and with TK-10 renal was greater than 100 µM throughout. The compound also gave a TGI with UACC-62 melanoma greater than 100 µM.

Take `CCOC(CN(C)C(=S)Nc1cccc2ccccc12)OCC`: the TGI in the experiment with A498 renal, with HT29 colon, in the experiment with NCI-H522 lung, in the experiment with OVCAR-8 ovarian, with SN12C renal and in the experiment with TK-10 renal was greater than 10 µM each time. This compound displayed a TGI in the experiment on UACC-62 melanoma greater than 10 µM.

Regarding `CCOC(=O)C1(C(=O)OCC)CCCN1C(=O)[C@H](CNC(=O)OC(C)(C)C)NC(=O)OCc1ccccc1`, the TGI in the experiment on BT-549 breast, in the experiment with HT29 colon, in the experiment on SN12C renal and with TK-10 renal was greater than 100 µM in each case.

`COc1cc(CNc2nc3cc(C(F)(F)F)ccc3nc2-c2ccccc2)cc(OC)c1OC`: the TGI in the experiment on HT29 colon is greater than 100 µM; with NCI-H522 lung it was greater than 100 µM; in the experiment on OVCAR-8 ovarian, greater than 100 µM; in the experiment on SN12C renal it was greater than 100 µM; in the experiment on TK-10 renal, greater than 100 µM; in the experiment with UACC-62 melanoma, 33.3 µM.

Consider `CC1=CC(=O)CC2(C)CCC(C(C)CC(=O)CC(C)C)CC12` (stereo unspecified), for which the TGI in the experiment on A498 renal is greater than 100 µM; in the experiment with HT29 colon, 76.8 µM; with NCI-H522 lung it was 30.8 µM; in the experiment with OVCAR-8 ovarian, 53.2 µM; in the experiment on SN12C renal it was 32.6 µM; in the experiment on TK-10 renal, greater than 100 µM. The compound further had a TGI in the experiment on UACC-62 melanoma of 59.1 µM.
